Source: publication PMC4226669, “Anti-cancer potency of tasquinimod is enhanced via albumin-binding facilitating increased uptake in the tumor microenvironment” (Oncotarget, 2014)

Columns and labels:
[1] = test system: metastatic, castrate resistant prostate cancer; design: method as in PMID 21931019, PMID 24255071; conditions: vs placebo; cited from earlier work
[2] = test system: CWR-22RH human prostate cancer; assay: Tumor take of CWR-22RH xenografts in castrated nude mice; assay type: in vivo, mouse; conditions: tasquinimod alone 10mg/kg/day via drinking water from inoculation
Experimental: To confirm this conclusion, castrated male nude mice were xenografted with the castrate resistant CWR-22RH human prostate cancer tissue and the animals immediately randomized into groups (n=10) which were: 1) left untreated as controls; 2) given daily oral treatment with tasquinimod alone via the drinking water (10mg/kg/day); 3) given oral ketoconazole alone via oral gavage at a daily dose which inhibits cytochrome P450 3A4 (i.e., 25 mg/kg/day); or 4) given a combination of the two drugs. […] These combined in vitro/in vivo results document tasquinimod, not one of its metabolites, is the active drug.
(§1) The source, history, and characteristics of the human prostate cancer cell lines (i.e., LNCaP, LAPC4, and CWR-22Rv1 and the human umbilical vascular endothelial cells (HUVEC) used, as well as cell culture conditions for their in vitro maintenance and the in vivo protocol for their xenografting into immune-deficient nude male mice are as described previously. The source, history, and characteristics of the TRAMP-C2 mouse prostate cancer line, as well as cell culture conditions for their in vitro maintenance and the in vivo protocol for their growth in intact adult male syngeneic C57Bl/6J are as described previously. All lines were mycoplasma negative using the MycoSensor PCR Assay kit (Agilent Technologies) and genetically authenticated within the last 6 months using short tandem repeat profiling conducted by the Johns Hopkins Genetic Resource Core Facility. The source, history, and characteristics of the CWR-RH human prostate cancer xenograft are as described previously. In vitro growth curves were determined as described. Animal studies were conducted according to animal protocol MO09M434 approved by Johns Hopkins Animal Care and Use Committee. Daily drug dosing via oral gavage, the drinking water, or subcutaneous injection, as well as tumor volume measurements and determination of the blood vessel density within cancers, were as described previously. These experiments were repeated at 3 independent times for each xenograft.

[3] = test system: CWR-22Rv1 human prostate cancer xenografts; assay: Dose-response growth inhibition of established CWR-22Rv1 xenografts (subcutaneous daily injection); assay type: in vivo, mouse; conditions: 20 days
Experimental: To confirm these in vitro results, mice were inoculated subcutaneously (SQ) with CWR-22Rv1 cells and remained untreated until the tumors grew to ~ 200 mm3 (i.e., ~ 200 mgs) and then they were randomly assigned to groups (n=10) which were injected SQ daily with 100 μl of propylene glycol vehicle only vs. vehicle delivering 0.1 or 1 mg/kg/day of either tasquinimod or its carboxamide-N-demethylated metabolite. Propylene glycol was used as vehicle due to the low water solubility of the carboxamide-N-demethylated metabolite. After 20 days of continuous treatment, the experiment was terminated and the total weight of each cancer determined and the results expressed both as average tumor weight in grams and as the ratio of the weight of the cancers in the treated vs. vehicle control animals (i.e., T/C ratio), Figure 5A.
as §1

HUVEC cells = assay: In vitro cell metabolism in HUVEC; assay type: in vitro ADME, human; conditions: HUVEC, 1 μM, 48 hours
Experimental: The nuclear uptake results are consistent with tasquinimod being the active drug for both direct therapeutic effects on cancer cells and indirect effects via suppression of the angiogenic response of host endothelial cells. To confirm these conclusions, the concentration of tasquinimod metabolites produced by endothelial cells was compared to the potency of these metabolites for inhibiting angiogenesis. When HUVEC cells are exposed to 1 μM of ^14C-labeled tasquinimod for 48 hours, < 15% of the drug is metabolized with 10% (i.e., 100 nM) being converted to the quinoline-O-demethylated compound and < 2% (i.e., < 20 nM) being converted to the quinoline-N-demethylated or carboxamide-N-demethylated compounds.
For in vitro studies, cells were incubated with 1μM ^14C-labeled tasquinimod for indicated time period and then the media and cells or cell nuclei separately harvested, deproteinated with acetonitrile, and metabolites separated by HPLC and quantitated as described above.

[4] = Drug binding in 10% FBS supplemented media; assay type: in vitro ADME, bovine; conditions: 1 μM in 10% FBS supplemented media
From the text: Since tasquinimod binds to both S100A9 and HDAC4 proteins with high affinities and since S100A9 has both an extracellular and intracellular location while HDAC4 in prostate cancer cells is in the cell nucleus, it is important to evaluate whether tasquinimod is capable of entering cells or whether it only associates with extracellular plasma membrane components. To resolve this question, an in vitro approach was taken using three human prostate cancer cells (i.e., CWR-22Rv1, LAPC-4, and LNCaP) and human umbilical vein endothelial (HUVEC) cells. When 1 μM tasquinimod is added to 10% fetal bovine serum (FBS) supplemented media, there is sufficient albumin to bind 80% of the drug so that the protein-free concentration of tasquinimod in such media is only 0.2 μM. Preliminary studies documented that even after 48 hours of exposure of HUVEC and each of the 3 prostate cancer cell lines to 1 μM at confluent cell density, there was < 15% metabolism of the parental tasquinimod drug with the major metabolite being the O-demethylated quinoline compound.

[5] = target: human serum albumin (HSA) (Homo sapiens, UniProt P02768); assay: Reversibility of albumin binding (dialysis against drug free HSA); conditions: after 4 hours of dialysis, pH 7.4
Experimental: In additional studies, 200 μg (i.e., 3nmol) of human serum albumin (HSA) was incubated with 400 pmoles of ^14C-labeled tasquinimod at pH 7.4 so that 50% of the drug is protein bound. This solution was then placed in a dialysis chamber opposite an equal volume of a solution containing 8 mg (i.e., 120 nmoles) of drug free HSA at pH 7.4 separated by a membrane which is permeable to unbound free tasquinimod, but impermeable to albumin. The 8 mg of HSA in the initial drug free side was chosen because this amount of albumin can bind 98% of the drug when exposed to 400 pmoles of tasquinimod.

Chain of human serum albumin (HSA) (P02768 25-609): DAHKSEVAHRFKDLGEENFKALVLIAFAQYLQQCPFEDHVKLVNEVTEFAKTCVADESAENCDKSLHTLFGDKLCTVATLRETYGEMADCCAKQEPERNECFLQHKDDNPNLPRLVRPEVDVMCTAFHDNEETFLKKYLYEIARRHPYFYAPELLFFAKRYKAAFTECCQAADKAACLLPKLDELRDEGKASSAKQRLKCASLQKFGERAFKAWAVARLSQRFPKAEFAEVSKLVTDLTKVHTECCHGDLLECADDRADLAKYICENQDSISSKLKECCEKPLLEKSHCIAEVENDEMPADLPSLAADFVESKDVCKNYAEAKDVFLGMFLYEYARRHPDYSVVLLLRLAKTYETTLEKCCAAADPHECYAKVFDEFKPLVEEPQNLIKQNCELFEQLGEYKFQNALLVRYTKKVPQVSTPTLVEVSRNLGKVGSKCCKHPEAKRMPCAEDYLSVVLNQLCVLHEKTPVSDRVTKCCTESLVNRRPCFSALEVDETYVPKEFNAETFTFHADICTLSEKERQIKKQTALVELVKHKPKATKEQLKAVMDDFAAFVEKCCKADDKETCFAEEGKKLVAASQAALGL

In the case of `COc1cccc2c1c(O)c(C(=O)N(C)c1ccc(C(F)(F)F)cc1)c(=O)n2C` [Tasquinimod], the median progression-free survival [1] is given as “doubles”, the “tumor take and subsequent malignant growth” value [2] is given as “prevents tumor take” and the “Avg Tumor Weight” value ([3]; 0.1 mg/kg/day SQ) is given as 0.855 ± 0.203 g. For the same molecule, the “T/C Ratio” value ([3]; 0.1 mg/kg/day SQ) was 0.491, the “Avg Tumor Weight” value ([3]; 1 mg/kg/day SQ) was 0.668 ± 0.166 g and the “T/C Ratio” value ([3]; 1 mg/kg/day SQ) was 0.383. The “potency on an equal dose basis vs carboxamide-N-demethylated metabolite” value ([3]; 0.1 or 1 mg/kg/day SQ) was “equipotent”, the drug metabolized (HUVEC cells) was under 15% and the “drug bound by albumin in media” value [4] was 80%. For the same molecule, the “protein-free concentration in media” value [4] was 0.2 µM and the “initial protein bound tasquinimod released” value [5] was 65 ± 9%.
